According to patent publication US11839212B2, “Synergistic pesticidal compositions and methods for delivery of insecticidal active ingredients” (0903608 B.C. Ltd., priority 2018, dated 2023):
Like-named read-outs stand apart in the source and are kept apart here. Values belong to the compound of their own block, whether it stands above or below them.

How the values were obtained:
Assay in all cases: Synergistic Growth Inhibition Assay (MIC and FIC index, 96-well, resazurin)
Format in all cases: cell-based
Botrytis cinerea = details: for MIC: Botrytis cinerea, 48 h
Experimental: (§1) In some embodiments, the synergistic action between the pesticidal active ingredient, and the at least one C6-C10 (or alternatively C11 or C12) saturated or unsaturated aliphatic acid components of the pesticidal compositions according to embodiments of the present disclosure was tested using a Synergistic Growth Inhibition Assay, which is derived from and related to a checkerboard assay as is known in the art for testing of combinations of antimicrobial agents. In the Synergistic Growth Inhibition Assay used in accordance with some embodiments of the present disclosure, multiple dilutions of combinations of pesticidal active ingredient and at least one C6-C10 saturated or unsaturated aliphatic acid agents are tested in individual cells for inhibitory activity against a target pest or pathogenic organism. In one such embodiment, the combinations of pesticidal active ingredient and C6-C10 (or alternatively C11 or C12) saturated or unsaturated aliphatic acid agents may preferably be tested in decreasing concentrations. In a further such embodiment, the combinations of pesticidal active ingredient and C6-C10 (or alternatively C11 or C12) saturated or unsaturated aliphatic acid agents may be tested in increasing concentrations. These multiple combinations of the pesticidal active ingredient and at least one C6-C10 (or alternatively C11 or C12) saturated or unsaturated aliphatic acid agents may be prepared in 96-well microtiter plates. In one such embodiment, the Synergistic Growth Inhibition Assay then comprises rows which each contain progressively decreasing concentrations of the pesticidal active ingredient and one or more C6-C10 (or alternatively C11 or C12) saturated or unsaturated aliphatic acid agents to test for the MIC of the agents in combination at which growth of the target pest or pathogen is inhibited. Thus, each well of the microtiter plate is a unique combination of the two agents, at which inhibitory efficacy of the combination against the target pest or pathogen can be determined.
(§2) In one embodiment according to the present disclosure, for each row of microtiter cells in the Synergistic Growth Inhibition Assay, the FIC index is calculated from the lowest concentration of the pesticidal active ingredient and one or more C6-C10 saturated or unsaturated aliphatic acid agents necessary to inhibit growth of a target pest or pathogen. The FIC of each component is derived by dividing the concentration of the agent present in that well of the microtiter plate by the minimal inhibitory concentration (MIC) needed of that agent alone to inhibit growth of the target pest or pathogen. The FIC index is then the sum of these values for both agents in that well of the microtiter plate. […] Fractional inhibitory concentration indices may then used as measure of synergy. […] When the FIC index is equal to 1, the combination is additive.
(§3) Then, serial dilutions of these initial compositions in successive wells in the row of the microtiter plate were used to assay the pesticidal composition under the same conditions to determine the concentration of the composition combining the two agents corresponding to the microtiter well in which growth inhibition of the target pest or organism ceases.
(§4) Similarly to as described above, Resazurin was used as an indicator of growth or inhibition of growth of Botrytis cinerea in the exemplary Synergistic Growth Inhibition Assay. In addition to the color change of the resazurin, an optical or visual examination of the microtiter well may also be made to additionally determine the presence of growth or inhibition of growth of the Botrytis cinerea.

Fusarium oxysporum = details: Fusarium oxysporum
Experimental: as §1, §2, §3
Resazurin dye (also known as Alamar blue dye) was used as an indicator to determine the presence of growth or inhibition of growth of Fusarium oxysporum in the wells of the 96 well microtiter plates used in the exemplary Synergistic Growth Inhibition Assay. In addition to the color change of the resazurin dye in the presence of growth of the Fusarium oxysporum, an optical or visual examination of the microtiter well may also be made to additionally determine the presence of growth or inhibition of growth of the Fusarium oxysporum.

Sclerotinia sclerotiorum = details: for MIC: Sclerotinia sclerotiorum
Experimental: as §1, §2, §3
as §4, with “Sclerotinia sclerotiorum” for “Botrytis cinerea”, “Sclerotinia sclerotiorum.” for “Botrytis cinerea.”

[1] = Table 51, Compound B alone, 48 hours incubation, read-out: MIC (B)
[2] = Table 56, Compound B alone, 48 hours incubation, read-out: MIC (B)
[3] = Table 59, Compound B alone, 48 hours incubation, read-out: MIC (B)
[4] = 48 h, Table 27, Compound B alone, 48 hours incubation, read-out: MIC (B)
[5] = 48 h, Table 30, Compound B alone, 48 hours incubation, read-out: MIC (B)
[6] = Table 20B, Compound A alone, incubation 7 days, read-out: MIC (A)
[7] = Table 54, Compound B alone, 48 hours incubation, read-out: MIC (B)
[8] = Table 24, Compound B alone, 48 hours incubation, read-out: MIC (B)
[9] = Table 25, Compound B alone, 48 hours incubation, read-out: MIC (B)
[10] = Table 26, Compound B alone, 48 hours incubation, read-out: MIC (B)

MIC (Botrytis cinerea; [1]): 39.1 µg/mL
MIC (Botrytis cinerea; [2]): 312 µg/mL
MIC (Botrytis cinerea; [3]): 78.1 µg/mL
SMILES: CCCCCCC(C)C(=O)O (stereo not drawn) [2-Methyloctanoic acid]

MIC (Botrytis cinerea; Table 43, Compound B alone, 48 hours incubation, read-out: MIC (B)): 312 µg/mL
MIC (Botrytis cinerea; Table 45, Compound B alone, 48 hours incubation, read-out: MIC (B)): 312 µg/mL
MIC (Fusarium oxysporum; [4]): 312 µg/mL
MIC (Fusarium oxysporum; [5]): 312 µg/mL
SMILES: CC=CCCC(=O)O [4-Hexenoic acid]

MIC (Botrytis cinerea; [1]): 7.81 µg/mL
MIC (Botrytis cinerea; [2]): 125 µg/mL
MIC (Botrytis cinerea; [3]): 125 µg/mL
SMILES: CCCCCCCCC(C)C(=O)O (stereo not drawn) [2-Methyldecanoic acid]

SMILES: CCCCCCCC/C=C\CCCCCCCC(=O)O [(9Z)-octadecenoic acid]
MIC (B) (Botrytis cinerea; Table 49, Compound B alone, 48 hours incubation): 5000 µg/mL
MIC (B) (Botrytis cinerea; Table 50, Compound B alone, 48 hours incubation): 5000 µg/mL
MIC (B) (Sclerotinia sclerotiorum; Table 33, Compound B alone, 7 days incubation): 5000 µg/mL

MIC (Fusarium oxysporum; 24 h, Table 3, Compound B alone, 24 hour incubation, read-out: MIC(B)): 149 µg/mL
MIC (Fusarium oxysporum; 24 h, Table 4, Compound B alone, 24 hour incubation, read-out: MIC (B)): 149 µg/mL
MIC (Fusarium oxysporum; [4]): 312 µg/mL
MIC (Fusarium oxysporum; [5]): 156 µg/mL
MIC (Fusarium oxysporum; 48 h, Table 31, Compound B alone, 48 hours incubation, read-out: MIC (B)): 156 µg/mL
MIC (Fusarium oxysporum; 48 h, Table 32, Compound B alone, 48 hours incubation, read-out: MIC (B)): 312 µg/mL
SMILES: CCCCC/C=C/C(=O)O [Trans-2-octenoic acid, trans-2-octenoic acid]

MIC (Botrytis cinerea; [3]): 1250 µg/mL
SMILES: CCCCC(O)C(=O)O (stereo not drawn) [2-hydroxyhexanoic acid]

SMILES: Cc1cc(C(F)(F)F)nn1CC(=O)N1CCC(c2nc(C3=NOC(c4c(F)cccc4F)C3)cs2)CC1 (stereo not drawn) [Oxathiapiprolin, reference compound]
MIC (A) (Botrytis cinerea; Table 55, Compound A alone, 48 hours incubation): 500 µg/mL

SMILES: O=C(O)CCCCCCCO [8-Hydroxyoctanoic acid]
MIC (Botrytis cinerea; read-out: MIC (B), Table 51, Compound B alone, 48 hours incubation): 1250 µg/mL
MIC (Botrytis cinerea; read-out: MIC (B), Table 56, Compound B alone, 48 hours incubation): 2500 µg/mL
MIC (Botrytis cinerea; read-out: MIC (B), Table 59, Compound B alone, 48 hours incubation): 1250 µg/mL

SMILES: N#Cc1c(Cl)c(Cl)c(Cl)c(C#N)c1Cl [Chlorothalonil, reference compound]
MIC (Botrytis cinerea; Table 46, Compound A alone, 48 hours incubation, read-out: MIC (A)): 0.0176 µg/mL
MIC (Sclerotinia sclerotiorum; [6]): 0.0312 µg/mL
MIC (Sclerotinia sclerotiorum; Table 36, Compound A alone, 7 days incubation, read-out: MIC (A)): 0.0312 µg/mL
MIC (Fusarium oxysporum; 48 h, Table 12, Compound A alone, incubation 48 hours, read-out: MIC (A)): 0.125 µg/mL

SMILES: COCC(=O)N(c1c(C)cccc1C)C(C)C(=O)OC (stereo not drawn) [Metalaxyl, reference compound]
MIC (Botrytis cinerea; Table 23, Compound A alone, incubation 48 hours, read-out: MIC (A)): 316 µg/mL
MIC (Botrytis cinerea; Table 26, Compound A alone, 48 hours incubation, read-out: MIC (A)): 316 µg/mL
MIC (Botrytis cinerea; Table 48, Compound A alone, 48 hours incubation, read-out: MIC (A)): 316 µg/mL
MIC (Sclerotinia sclerotiorum; [6]): 1260 µg/mL

SMILES: CCCCCCCC/C=C\CCCCCCCC(=O)O [Oleic acid]
MIC (Botrytis cinerea; [7]): 5000 µg/mL
MIC (Botrytis cinerea; [2]): 5000 µg/mL

MIC (Sclerotinia sclerotiorum; Table 34, Compound B alone, 7 days incubation, read-out: MIC (B)): 19.5 µg/mL
SMILES: CCCCCCC/C=C\C(=O)O [Cis-2-decenoic acid]

SMILES: C/C=C/C=C/C(=O)[O-].[K+] [(2E,4E)-2,4-hexadienoic acid, potassium salt]
MIC (Fusarium oxysporum; 24 h, read-out: MIC (B), Table 2, Compound B alone, 24 hour incubation): 625 µg/mL
MIC (Fusarium oxysporum; 24 h, read-out: MIC(B), Table 1, Compound B alone, 24 hour incubation): 625 µg/mL

MIC (Botrytis cinerea; [3]): 312 µg/mL
SMILES: CCCCCCCCC(O)C(=O)O (stereo not drawn) [2-Hydroxydecanoic acid]

MIC (Botrytis cinerea; [1]): 250 µg/mL
MIC (Botrytis cinerea; [3]): 250 µg/mL
SMILES: CCC(CC)(CC)C(=O)O [2,2-Diethylbutanoic acid]

MIC (Botrytis cinerea; Table 21, Compound B alone, incubation 48 hours, read-out: MIC (B)): 25 µg/mL
MIC (Botrytis cinerea; [8]): 50 µg/mL
MIC (Botrytis cinerea; [9]): 50 µg/mL
MIC (Botrytis cinerea; [10]): 50 µg/mL
MIC (Botrytis cinerea; [7]): 50 µg/mL
MIC (Botrytis cinerea; [2]): 50 µg/mL
MIC (Sclerotinia sclerotiorum; Table 16, Compound B alone, incubation 7 days, read-out: MIC (B)): 50 µg/mL
MIC (Sclerotinia sclerotiorum; Table 17, Compound B alone, incubation 7 days, read-out: MIC (B)): 50 µg/mL
MIC (Sclerotinia sclerotiorum; Table 18, Compound B alone, incubation 7 days, read-out: MIC (B)): 50 µg/mL
MIC (Sclerotinia sclerotiorum; Table 20A, Compound B alone, incubation 7 days, read-out: MIC (B)): 25 µg/mL
SMILES: CCCCCCCCCCCC(=O)O [Dodecanoic acid, dodecanoic acid]

SMILES: N#Cc1c[nH]cc1-c1cccc2c1OC(F)(F)O2 [Fludioxonil, fludioxonil, reference compound]
MIC (Sclerotinia sclerotiorum; read-out: MIC (A), Table 37, Compound A alone, 7 days incubation): 0.164 µg/mL
MIC (Fusarium oxysporum; 24 h, read-out: MIC (A), Table 2, Compound A alone, 24 hour incubation): 0.481 µg/mL
MIC (Fusarium oxysporum; 24 h, read-out: MIC (A), Table 3, Compound A alone, 24 hour incubation): 0.241 µg/mL
MIC (Fusarium oxysporum; 24 h, read-out: MIC(A), Table 7, Compound A alone, 24 hour incubation): 0.481 µg/mL
MIC (Fusarium oxysporum; 48 h, read-out: MIC (A), Table 13, Compound A alone, incubation 48 hours): 21 µg/mL
MIC (Fusarium oxysporum; 48 h, read-out: MIC (A), Table 15B, Compound A alone, incubation 48 hours): 21 µg/mL
MIC (Fusarium oxysporum; 48 h, read-out: MIC (A), Table 29, Compound A alone, 48 hours incubation): 21 µg/mL
MIC (Fusarium oxysporum; read-out: MIC (A), Table 8, Compound A alone): 0.481 µg/mL

SMILES: CCCCCCCCCC(=O)O [Decanoic acid, decanoic acid]
MIC (Botrytis cinerea; Table 22, Compound B alone, incubation 48 hours, read-out: MIC (B)): 78.1 µg/mL
MIC (Botrytis cinerea; [8]): 312 µg/mL
MIC (Botrytis cinerea; [9]): 15.6 µg/mL
MIC (Botrytis cinerea; [10]): 78.1 µg/mL
MIC (Botrytis cinerea; Table 52, Compound B alone, 48 hours incubation, read-out: MIC(B)): 15.6 µg/mL
MIC (Botrytis cinerea; [7]): 15.6 µg/mL

SMILES: CON=C(C(=O)OC)c1ccccc1CON=C(C)c1cccc(C(F)(F)F)c1 [Trifloxystrobin, reference compound]
MIC (Botrytis cinerea; Table 58, Compound A alone, 48 hours incubation, read-out: MIC (A)): 250 µg/mL
MIC (Botrytis cinerea; Table 59, Compound A alone, 48 hours incubation, read-out: MIC (A)): 250 µg/mL

SMILES: CCCCCCCCCC(=O)[O-].[K+] [Decanoic acid, potassium salt, decanoic acid, potassium salt]
MIC (Fusarium oxysporum; 24 h, read-out: MIC(B), Table 7, Compound B alone, 24 hour incubation): 78.1 µg/mL
MIC (Fusarium oxysporum; read-out: MIC (B), Table 8, Compound B alone): 78.1 µg/mL

SMILES: CCCC1COC(Cn2cncn2)(c2ccc(Cl)cc2Cl)O1 (stereo not drawn) [Propiconazole, reference compound]
MIC (Botrytis cinerea; Table 24, Compound A alone, 48 hours incubation, read-out: MIC (A)): 89 µg/mL
MIC (Sclerotinia sclerotiorum; Table 18, Compound A alone, incubation 7 days, read-out: MIC (A)): 89 µg/mL
MIC (Sclerotinia sclerotiorum; [6]): 89 µg/mL
MIC (Sclerotinia sclerotiorum; Table 39, Compound A alone, 7 days incubation, read-out: MIC (A)): 89 µg/mL
